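These data come from cells grown in 96-well plates and exposed to compound for 48 hours at five concentrations. Here, GI50 denotes the concentration required for 50% inhibition of growth.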 Calls of active or inactive are those of the source. Rule as the data show it: active = GI50 up to about 1.1 µM and inactive = higher.
Assays:
Test in all cases: NCI tumour cell line growth inhibition, 48 h
[1] = system: NCI-H23
[2] = system: CAKI-1
[3] = system: EKVX
[4] = system: MCF7
[5] = system: HOP-62
[6] = system: NCI/ADR-RES
[7] = system: BT-549
[8] = system: NCI-H460
[9] = system: MDA-MB-435
[10] = system: K562
[11] = system: MOLT-4
[12] = system: SK-MEL-5
[13] = system: UO-31
[14] = system: UACC-257
[15] = system: SN12C
[16] = system: HCC 2998
[17] = system: UACC-62
[18] = system: HT-29
[19] = system: SF-268
[20] = system: HCT-15

SMILES | GI50 [1] | GI50 [2] | GI50 [3] | GI50 [4] | GI50 [5] | GI50 [6] | GI50 [7] | GI50 [8] | GI50 [9] | GI50 [10] | GI50 [11] | GI50 [12] | GI50 [13] | GI50 [14] | GI50 [15] | GI50 [16] | GI50 [17] | GI50 [18] | GI50 [19] | GI50 [20] [µM]
CCN(CC)Cc1ccc2cccnc2c1O | 6.67 µM (inactive) | 2.47 µM (inactive) | 2.24 µM (inactive) | 3.27 µM (inactive) | 4.5 µM (inactive) | 0.358 µM (active) | 37.1 µM (inactive) | 3.82 µM (inactive) | 9.42 µM (inactive) | 2.15 µM (inactive) | 1.93 µM (inactive) | 3.54 µM (inactive) | 1.88 µM (inactive) | 4.91 µM (inactive) | 4.12 µM (inactive) | 11.1 µM (inactive) | 5.92 µM (inactive) | 2.9 µM (inactive) | 22.6 µM (inactive) | 0.365
NCCCCN(CCCN)Cc1ccccc1 | > 100 µM (inactive) | > 100 µM (inactive) | > 100 µM (inactive) | > 100 µM (inactive) | > 100 µM (inactive) | > 100 µM (inactive) | > 100 µM (inactive) | > 100 µM (inactive) | > 100 µM (inactive) | > 100 µM (inactive) | > 100 µM (inactive) | > 100 µM (inactive) | > 100 µM (inactive) | > 100 µM (inactive) | > 100 µM (inactive) | > 100 µM (inactive) | > 100 µM (inactive) | > 100 µM (inactive) | > 100 µM (inactive) | > 100
Cc1c2cc[n+](C)cc2c(C)c2c1[nH]c1ccc(O)cc12 [ELLIPTINIUM ACETATE] | 8.91 µM (inactive) | 47.4 µM (inactive) | 38.2 µM (inactive) | 8.75 µM (inactive) | 4.06 µM (inactive) | 61.7 µM (inactive) | 3.71 µM (inactive) | 0.228 µM (active) | 48.9 µM (inactive) | 16.9 µM (inactive) | 0.241 µM (active) | 7.89 µM (inactive) | 17.7 µM (inactive) | 64 µM (inactive) | 0.532 µM (active) | 49.4 µM (inactive) | 15.3 µM (inactive) | 62.4 µM (inactive) | 0.369 µM (active) | 50.4
CCN1CCC(O)(/C=C/c2ccccc2C)C(C(=O)/C=C/c2ccccc2C)C1 (stereo not given) | 1.8 µM (inactive) | 1.82 µM (inactive) | 4.06 µM (inactive) | 3.15 µM (inactive) | 1.94 µM (inactive) | 3.65 µM (inactive) | 2.84 µM (inactive) | 1.53 µM (inactive) | 2.38 µM (inactive) | 3.07 µM (inactive) | 2.38 µM (inactive) | 1.56 µM (inactive) | 1.63 µM (inactive) | 2.9 µM (inactive) | 2.18 µM (inactive) | 1.31 µM (inactive) | 2.97 µM (inactive) | 2.63 µM (inactive) | 3.87 µM (inactive) | 1.56
C(/C=N/c1ccccc1)=C(/Nc1ccccc1)C12CC3CC(CC(C3)C1)C2 | 18.3 µM (inactive) | 15.4 µM (inactive) | 20.7 µM (inactive) | 20.5 µM (inactive) | 19.2 µM (inactive) | 19.3 µM (inactive) | 16.6 µM (inactive) | 23.6 µM (inactive) | 15.2 µM (inactive) | 7.23 µM (inactive) | 5.73 µM (inactive) | 14.7 µM (inactive) | 15.1 µM (inactive) | 27.9 µM (inactive) | 18.8 µM (inactive) | 15.8 µM (inactive) | 12.1 µM (inactive) | 12.6 µM (inactive) | 19.1 µM (inactive) | 14.1
COc1cc(C2c3cc4c(cc3OC(N3CCCCC3)C2C)OCO4)cc(OC)c1OC (stereo not given) | 3.41 µM (inactive) | 2.46 µM (inactive) | 10.3 µM (inactive) | 1.44 µM (inactive) | 2.85 µM (inactive) | 3.17 µM (inactive) | 18.9 µM (inactive) | 3.52 µM (inactive) | 0.67 µM (active) | 2.44 µM (inactive) | 3.9 µM (inactive) | 2.62 µM (inactive) | 5.02 µM (inactive) | 12.3 µM (inactive) | 6.07 µM (inactive) | 2.9 µM (inactive) | 3.53 µM (inactive) | 3.04 µM (inactive) | 9.02 µM (inactive) | 3.65
